Where two headings read alike, the source gives them in different places.
Key:
[1] = molecular target: T1, His-tagged KRAS G12D protein (Homo sapiens, UniProt P01116, G12D)
Procedure: (§1) The plate was incubated for 30 minutes at room temperature. Biotinylated KRPep-2d substrate (Amgen) was diluted to nM in Assay Buffer and 2 μL was added to all wells and incubated for 1 hour at room temperature. Detection Reagent (0.4 nM LANCE Eu-W1024 Anti-6×His (Perkin Elmer AD0401), 5 nM streptavidin-d2 (Cisbio 610SADLA)) was prepared in Assay Buffer, then 4 µL was added to the plate and incubated for 1 hour at room temperature.

[2] = tested on: Phosphorylation of ERK1/2 in AsPC-1 cells; test: Phospho-ERK1/2 MSD Assay; assay type: cell-based
Procedure: Sixteen hours prior to compound treatment, AsPC-1 cells were seeded in 96-well cell culture plates at a density of 25,000 cells/well and incubated at 37° C., 5% CO2. A compound dose-response titration was diluted in growth media, added to appropriate wells of a cell culture plate, and then incubated at 37° C., 5% CO2 for 2 hours.

[3] = molecular target: T1, His-tagged KRAS G12D protein; test: biochemical
Procedure: as §1

[4] = Homo sapiens, ASPC1, 2 h, read-out: 2 h p-ERK (AsPC-1 cells), IC50, AsPC-1 cells, 2 h compound treatment

T1 sequence (P01116 1-188 isoform P01116-2 G12D): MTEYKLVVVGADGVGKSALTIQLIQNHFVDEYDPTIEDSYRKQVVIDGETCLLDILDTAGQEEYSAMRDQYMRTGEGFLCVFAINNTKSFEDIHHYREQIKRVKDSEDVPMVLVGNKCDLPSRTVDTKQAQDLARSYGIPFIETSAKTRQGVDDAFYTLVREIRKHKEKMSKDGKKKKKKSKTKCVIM

SMILES	IC50 [1]	IC50 ([2]; read-out: 2 h p-ERK (AsPC-1 cells), IC50, AsPC-1 cells, 2 h compound treatment)	IC50 [2, 4]	IC50 [3]
CCc1c(F)ccc2cc(O)cc(-c3ncc4c(N5CCCC(C#N)CC5)nc(OC[C@@]56CCCN5C[C@H](F)C6)nc4c3F)c12 (single isomer, unassigned) [Example 55]	3 nM	259 nM	–	–
CCc1c(F)ccc2cc(O)cc(-c3ncc4c(N5CCCC[C@@H](NC(C)=O)C5)nc(OC[C@@]56CCCN5C[C@H](F)C6)nc4c3F)c12 [Example 133, N-((R)-1-(7-(8-Ethyl-7-fluoro-3-hydroxynaphthalen-1-yl)-8-fluoro-2-(((2R,7aS)-2-fluorotetrahydro-1H-pyrrolizin-7a(5H)-yl)methoxy)pyrido[4,3-d]pyrimidin-4-yl)azepan-3-yl)acetamide]	–	–	661 nM	2 nM
CCc1c(F)ccc2cc(O)cc(-c3ncc4c(N5CCC=CC(O)C5)nc(OC[C@@]56CCCN5C[C@H](F)C6)nc4c3F)c12 (stereo partly drawn) [Example 135, 1-(7-(8-Ethyl-7-fluoro-3-hydroxynaphthalen-1-yl)-8-fluoro-2-(((2R,7aS)-2-fluorotetrahydro-1H-pyrrolizin-7a(5H)-yl)methoxy)pyrido[4,3-d]pyrimidin-4-yl)-2,3,6,7-tetrahydro-1H-azepin-3-ol]	–	–	81 nM	1 nM
CCc1c(F)ccc2cc(O)cc(-c3ncc4c(N5CCC[C@@H](C(=O)O)C5)nc(OC[C@@]56CCCN5C[C@H](F)C6)nc4c3F)c12 [Example 138, (R)-1-(7-(8-Ethyl-7-fluoro-3-hydroxynaphthalen-1-yl)-8-fluoro-2-(((2R,7aS)-2-fluorotetrahydro-1H-pyrrolizin-7a(5H)-yl)methoxy)pyrido[4,3-d]pyrimidin-4-yl)piperidine-3-carboxylic acid]	–	–	> 10000 nM	16 nM
CCc1c(F)ccc2cc(O)cc(-c3ncc4c(N5CCC=CCC5)nc(OC[C@@]56CCCN5C[C@H](F)C6)nc4c3F)c12 [Example 139, 5-Ethyl-6-fluoro-4-(8-fluoro-2-(((2R,7aS)-2-fluorotetrahydro-1H-pyrrolizin-7a(5H)-yl)methoxy)-4-(2,3,6,7-tetrahydro-1H-azepin-1-yl)pyrido[4,3-d]pyrimidin-7-yl)naphthalen-2-ol]	–	–	116 nM	5 nM
CCc1c(F)ccc2cc(O)cc(-c3ncc4c(N5C[C@H](N)CC(F)(F)C5)nc(OC[C@@]56CCCN5C[C@H](F)C6)nc4c3F)c12 [Example 140, 4-(4-((R)-5-Amino-3,3-difluoropiperidin-1-yl)-8-fluoro-2-(((2R,7aS)-2-fluorotetrahydro-1H-pyrrolizin-7a(5H)-yl)methoxy)pyrido[4,3-d]pyrimidin-7-yl)-5-ethyl-6-fluoronaphthalen-2-ol]	–	–	81 nM	3 nM
CCc1c(F)ccc2cc(O)cc(-c3ncc4c(N5CCCC(O)CC5)nc(OC[C@@]56CCCN5C[C@H](F)C6)nc4c3F)c12 (stereo partly drawn) [Example 141, 1-(7-(8-Ethyl-7-fluoro-3-hydroxynaphthalen-1-yl)-8-fluoro-2-(((2R,7aS)-2-fluorotetrahydro-1H-pyrrolizin-7a(5H)-yl)methoxy)pyrido[4,3-d]pyrimidin-4-yl)azepan-4-ol]	–	–	198 nM	4 nM
CCc1c(F)ccc2cc(O)cc(-c3ncc4c(N5CCCC(N)CC5)nc(OC[C@@]56CCCN5C[C@H](F)C6)nc4c3F)c12 (stereo partly drawn) [Example 143, 4-(4-(4-Aminoazepan-1-yl)-8-fluoro-2-(((2R,7aS)-2-fluorotetrahydro-1H-pyrrolizin-7a(5H)-yl)methoxy)pyrido[4,3-d]pyrimidin-7-yl)-5-ethyl-6-fluoronaphthalen-2-ol]	–	–	> 10000 nM	62 nM
CCc1c(F)ccc2cc(O)cc(-c3ncc4c(N5CC6CCC(C5)C(C#N)C6)nc(OC[C@@]56CCCN5C[C@H](F)C6)nc4c3F)c12 (stereo partly drawn) [Example 147, 3-(7-(8-Ethyl-7-fluoro-3-hydroxynaphthalen-1-yl)-8-fluoro-2-(((2R,7aS)-2-fluorotetrahydro-1H-pyrrolizin-7a(5H)-yl)methoxy)pyrido[4,3-d]pyrimidin-4-yl)-3-azabicyclo[3.2.2]nonane-6-carbonitrile]	–	–	714 nM	15 nM
CCc1c(F)ccc2cc(O)cc(-c3ncc4c(N5CCCC(F)(F)CC5)nc(OC[C@@]56CCCN5C[C@H](F)C6)nc4c3F)c12 [Example 149, 4-(4-(4,4-Difluoroazepan-1-yl)-8-fluoro-2-(((2R,7aS)-2-fluorotetrahydro-1H-pyrrolizin-7a(5H)-yl)methoxy)pyrido[4,3-d]pyrimidin-7-yl)-5-ethyl-6-fluoronaphthalen-2-ol]	–	–	702 nM	12 nM
CCc1c(F)ccc2cc(O)cc(-c3ncc4c(N5CCC(=O)C(F)(F)CC5)nc(OC[C@@]56CCCN5C[C@H](F)C6)nc4c3F)c12 [Example 150, 1-(7-(8-Ethyl-7-fluoro-3-hydroxy-naphthalen-1-yl)-8-fluoro-2-(((2R,7aS)-2-fluorotetrahydro-1H-pyrrolizin-7a(5H)-yl)methoxy)pyrido[4,3-d]pyrimidin-4-yl)-5,5-difluoroazepan-4-one]	–	–	1430 nM	3 nM
CCc1c(F)ccc2cc(O)cc(-c3ncc4c(N5CCC(=O)C(F)(F)C5)nc(OC[C@@]56CCCN5C[C@H](F)C6)nc4c3F)c12 [Example 152, 1-(7-(8-Ethyl-7-fluoro-3-hydroxy-naphthalen-1-yl)-8-fluoro-2-(((2R,7aS)-2-fluorotetrahydro-1H-pyrrolizin-7a(5H)-yl)methoxy)pyrido[4,3-d]pyrimidin-4-yl)-3,3-difluoropiperidin-4-one]	–	–	2670 nM	4 nM
CCc1c(F)ccc2cc(O)cc(-c3ncc4c(N5CCCCC(S(N)(=O)=O)C5)nc(OC[C@@]56CCCN5C[C@H](F)C6)nc4c3F)c12 (stereo partly drawn) [Example 158, 1-(7-(8-Ethyl-7-fluoro-3-hydroxy-naphthalen-1-yl)-8-fluoro-2-(((2R,7aS)-2-fluorotetrahydro-1H-pyrrolizin-7a(5H)-yl)methoxy)pyrido[4,3-d]pyrimidin-4-yl)azepane-3-sulfonamide]	–	–	1420 nM	2 nM
CCc1c(F)ccc2cc(O)cc(-c3ncc4c(N5CCCC(O)(C(N)=O)C5)nc(OC[C@@]56CCCN5C[C@H](F)C6)nc4c3F)c12 (stereo partly drawn) [Example 159, 1-(7-(8-Ethyl-7-fluoro-3-hydroxy-naphthalen-1-yl)-8-fluoro-2-(((2R,7aS)-2-fluorotetrahydro-1H-pyrrolizin-7a(5H)-yl)methoxy)pyrido[4,3-d]pyrimidin-4-yl)-3-hydroxypiperidine-3-carboxamide]	–	–	3080 nM	2 nM
CCc1c(F)ccc2cc(O)cc(-c3ncc4c(N5CCC[C@@H](C(N)=O)C5)nc(OC[C@@]56CCCN5C[C@H](F)C6)nc4c3F)c12 [Example 162, (R)-1-(7-(8-Ethyl-7-fluoro-3-hydroxynaphthalen-1-yl)-8-fluoro-2-(((2R,7aS)-2-fluorotetrahydro-1H-pyrrolizin-7a(5H)-yl)methoxy)pyrido[4,3-d]pyrimidin-4-yl)piperidine-3-carboxamide]	–	–	1610 nM	2 nM
Oc1cc(-c2ncc3c(N4CCCCCC4)nc(OC[C@@]45CCCN4C[C@H](F)C5)nc3c2F)c2c(F)c(F)ccc2c1 [Example 166, 4-(4-(Azepan-1-yl)-8-fluoro-2-(((2R,7aS)-2-fluorotetrahydro-1H-pyrrolizin-7a(5H)-yl)methoxy)pyrido[4,3-d]pyrimidin-7-yl)-5,6-difluoronaphthalen-2-ol]	–	–	94 nM	3 nM
C[C@@]1(O)CCCN(c2nc(OC[C@@]34CCCN3C[C@H](F)C4)nc3c(F)c(-c4cc(O)cc5cccc(C6CC6)c45)ncc23)C1 [Example 167, (R)-1-(7-(8-Cyclopropyl-3-hydroxynaphthalen-1-yl)-8-fluoro-2-(((2R,7aS)-2-fluorotetrahydro-1H-pyrrolizin-7a(5H)-yl)methoxy)pyrido[4,3-d]pyrimidin-4-yl)-3-methylpiperidin-3-ol]	–	–	12 nM	2 nM
C=CCC1CCCc2cc(O)cc(-c3ncc4c(N5CCC[C@@](C)(O)C5)nc(OC[C@@]56CCCN5C[C@H](F)C6)nc4c3F)c21 (stereo partly drawn) [Example 175, (3R)-1-(7-(8-Allyl-3-hydroxy-5,6,7,8-tetrahydro-naphthalen-1-yl)-8-fluoro-2-(((2R,7aS)-2-fluorotetrahydro-1H-pyrrolizin-7a(5H)-yl)methoxy)pyrido[4,3-d]pyrimidin-4-yl)-3-methyl-piperidin-3-ol]	–	–	10 nM	8 nM
CCc1c(F)ccc2cc(O)cc(-c3ncc4c(N5CCC[C@@](C)(O)C5)nc(OCC56CCCN5CCC6)nc4c3F)c12 [Example 179, (R)-1-(7-(8-Ethyl-7-fluoro-3-hydroxynaphthalen-1-yl)-8-fluoro-2-((tetrahydro-1H-pyrrolizin-7a(5H)-yl)methoxy)pyrido[4,3-d]pyrimidin-4-yl)-3-methylpiperidin-3-ol]	–	–	18 nM	5 nM
